Source: US10167262B2, “Herbicidal substituted 3-arylpyrazoles” (FMC CORPORATION, priority 2014, dated 2019)
Read-outs that look alike come from different tables or passages of the source.

Key:
Assay type in all cases: in vivo
[1] = system: ragweed (common ragweed, Ambrosia elatior); experiment: Test C pre-/postemergence greenhouse test, plant response rating 0-100; details: Ambrosia artemisiifolia; for pest or weed control at 62 g/ha: 62 g ai/ha; for pest or weed control at 125 g/ha: 125 g ai/ha; for pest or weed control at 250 g/ha: 250 g ai/ha
In short: (§1)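 Scores run from 0, no effect, to 100, complete control, assigned by eye after treated plants and controls spent 13 to 15 days in a greenhouse. Soil-applied treatment went onto freshly sown seed in loam and sand; foliar treatment hit seedlings at the 1- to 4-leaf stage.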

[2] = system: morningglory (Ipomoea coccinea); experiment: as above; details: Ipomoea; for pest or weed control at 62 g/ha: 62 g ai/ha; for pest or weed control at 125 g/ha: 125 g ai/ha; for pest or weed control at 250 g/ha: 250 g ai/ha
In short: as §1

[3] = system: velvetleaf (Abutilon theophrasti); experiment: as above; details: Abutilon theophrasti; for pest or weed control at 62 g/ha: 62 g ai/ha; for pest or weed control at 125 g/ha: 125 g ai/ha; for pest or weed control at 250 g/ha: 250 g ai/ha
In short: as §1

[4] = system: galium (catchweed bedstraw, Galium aparine); experiment: as above; details: Galium; for pest or weed control at 62 g/ha: 62 g ai/ha; for pest or weed control at 125 g/ha: 125 g ai/ha; for pest or weed control at 250 g/ha: 250 g ai/ha
In short: as §1

[5] = system: Italian ryegrass (Lolium multiflorum); experiment: as above; details: Lolium multiflorum; for pest or weed control at 62 g/ha: 62 g ai/ha; for pest or weed control at 125 g/ha: 125 g ai/ha; for pest or weed control at 250 g/ha: 250 g ai/ha
In short: as §1

[6] = system: velvetleaf (Abutilon theophrasti); experiment: Test A pre-/postemergence greenhouse herbicide test, visual injury rating 0-100; details: for pest or weed control at 500 g/ha: 500 g ai/ha
In short: (§2)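 Ratings are visual, 0 to 100 relative to untreated plants, taken approximately 10 days post-treatment in the greenhouse. Both preemergence soil and postemergence foliar routes were used with surfactant-containing non-phytotoxic solvent formulations.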

[7] = system: giant foxtail (Setaria faberii); experiment: as above; details: for pest or weed control at 500 g/ha: 500 g ai/ha
In short: as §2

[8] = system: large (Lg) crabgrass (Digitaria sanguinalis); experiment: as above; details: for pest or weed control at 500 g/ha: 500 g ai/ha
In short: as §2

[9] = system: pigweed (Amaranthus retroflexus); experiment: as above; details: for pest or weed control at 500 g/ha: 500 g ai/ha
In short: as §2

[10] = system: wheat (Triticum aestivum); experiment: as above; details: for plant injury at 500 g/ha: 500 g ai/ha
In short: as §2

corn (Zea mays) = experiment: as above; details: for plant injury at 500 g/ha: 500 g ai/ha
In short: as §2

[11] = system: barnyardgrass (Echinochloa crus-galli); experiment: as above; details: for pest or weed control at 500 g/ha: 500 g ai/ha
In short: as §2

[12] = system: morningglory (Ipomoea spp.); experiment: as above; details: for pest or weed control at 500 g/ha: 500 g ai/ha
In short: as §2

[13] = post-emergence, Postemergence, read-out: Plant response rating (0 to 100), Ragweed
[14] = post-emergence, Postemergence, scale 0 to 100
[15] = pre-emergence, Preemergence, read-out: Plant response rating, Ragweed
[16] = pre-emergence, Preemergence, 500 g ai/ha
[17] = post-emergence, Postemergence, read-out: Plant response rating (0 to 100), Morningglory
[18] = pre-emergence, Preemergence, read-out: Plant response rating, Morningglory
[19] = post-emergence, Postemergence, read-out: Plant response rating (0 to 100), Velvetleaf
[20] = pre-emergence, Preemergence, read-out: Plant response rating, Velvetleaf
[21] = post-emergence, Postemergence, read-out: Plant response rating (0 to 100), Galium
[22] = pre-emergence, Preemergence, read-out: Plant response rating, Galium
[23] = post-emergence, Postemergence, read-out: Plant response rating (0 to 100), Ryegrass, Italian
[24] = pre-emergence, Preemergence, read-out: Plant response rating, Ryegrass, Italian

Question: How did the pest or weed control at 62 g/ha [1, 13] turn out when `Cn1cc(C(=O)c2ccccc2)c(-c2cc(Cl)cc(Cl)c2)n1` [Compound 54, [3-(3,5-dichlorophenyl)-1-methyl-1H-pyrazol-4-yl]phenylmethanone] was run?
Answer: 0%

Question: What about the pest or weed control at 125 g/ha [1, 13] of the same molecule?
Answer: 0%

Question: And the pest or weed control at 250 g/ha [1, 14]?
Answer: 20%

Question: What about the pest or weed control at 62 g/ha [1, 15] of the same molecule?
Answer: 5%

Question: And the pest or weed control at 125 g/ha [1, 15]?
Answer: 15%

Question: And the pest or weed control at 250 g/ha ([1]; pre-emergence, Preemergence)?
Answer: 15%

Question: And the pest or weed control at 500 g/ha [1, 16]?
Answer: 40%

Question: What about the pest or weed control at 62 g/ha [2, 17] of the same molecule?
Answer: 0%

Question: And the pest or weed control at 125 g/ha [2, 17]?
Answer: 0%

Question: What about the pest or weed control at 250 g/ha [2, 14] of the same molecule?
Answer: 0%

Question: And the pest or weed control at 62 g/ha [2, 18]?
Answer: 0%

Question: And the pest or weed control at 125 g/ha [2, 18]?
Answer: 0%

Question: And the pest or weed control at 250 g/ha ([2]; pre-emergence, Preemergence)?
Answer: 15%

Question: And the pest or weed control at 500 g/ha [2, 16]?
Answer: 40%

Question: What about the pest or weed control at 62 g/ha [3, 19] of the same molecule?
Answer: 80%

Question: And the pest or weed control at 125 g/ha [3, 19]?
Answer: 85%

Question: And the pest or weed control at 250 g/ha [3, 14]?
Answer: 100%

Question: What about the pest or weed control at 62 g/ha [3, 20] of the same molecule?
Answer: 45%

Question: What about the pest or weed control at 125 g/ha [3, 20] of the same molecule?
Answer: 55%

Question: What about the pest or weed control at 250 g/ha ([3]; pre-emergence, Preemergence) of the same molecule?
Answer: 60%

Question: What about the pest or weed control at 500 g/ha [3, 16] of the same molecule?
Answer: 80%

Question: And the pest or weed control at 31 g/ha ([4]; post-emergence, Postemergence, 31 g ai/ha, read-out: Plant response rating (0 to 100), Galium)?
Answer: 0%

Question: What about the pest or weed control at 62 g/ha [4, 21] of the same molecule?
Answer: 0%

Question: And the pest or weed control at 125 g/ha [4, 21]?
Answer: 0%

Question: What about the pest or weed control at 250 g/ha [4, 14] of the same molecule?
Answer: 5%

Question: What about the pest or weed control at 62 g/ha [4, 22] of the same molecule?
Answer: 0%

Question: What about the pest or weed control at 125 g/ha [4, 22] of the same molecule?
Answer: 0%

Question: And the pest or weed control at 250 g/ha ([4]; pre-emergence, Preemergence)?
Answer: 0%

Question: And the pest or weed control at 500 g/ha [4, 16]?
Answer: 5%

Question: And the pest or weed control at 62 g/ha [5, 23]?
Answer: 0%

Question: What about the pest or weed control at 125 g/ha [5, 23] of the same molecule?
Answer: 0%

Question: What about the pest or weed control at 250 g/ha [5, 14] of the same molecule?
Answer: 0%

Question: And the pest or weed control at 62 g/ha [5, 24]?
Answer: 0%

Question: And the pest or weed control at 125 g/ha [5, 24]?
Answer: 0%

Question: And the pest or weed control at 250 g/ha ([5]; pre-emergence, Preemergence)?
Answer: 0%

Question: And the pest or weed control at 500 g/ha [5, 16]?
Answer: 0%

Question: What about the pest or weed control at 125 g/ha ([6]; Abutilon theophrasti, post-emergence, 240 h, Postemergence, 125 g ai/ha, read-out: Plant response rating (0 to 100 scale), Velvetleaf) of the same molecule?
Answer: 90%

Question: What about the pest or weed control at 500 g/ha ([6]; Abutilon theophrasti, post-emergence, 240 h, Postemergence, read-out: Plant response rating (0 to 100 scale), Velvetleaf) of the same molecule?
Answer: 100%

Question: And the pest or weed control at 500 g/ha ([6]; Abutilon theophrasti, pre-emergence, 240 h, Preemergence, read-out: Plant response rating (0 to 100 scale), Velvetleaf)?
Answer: 60%

Question: What about the “Velvetleaf plant response rating (0 = no effect, 100 = complete control)” value ([6]; Preemergence, 125 g ai/ha) of the same molecule?
Answer: 30

Question: And the “Foxtail, Giant plant response rating (0 = no effect, 100 = complete control)” value ([7]; Preemergence, 125 g ai/ha)?
Answer: 0

Question: What about the pest or weed control at 125 g/ha ([7]; Setaria faberi, post-emergence, 240 h, Postemergence, 125 g ai/ha, read-out: Plant response rating (0 to 100 scale), Foxtail, Giant) of the same molecule?
Answer: 0%

Question: And the pest or weed control at 500 g/ha ([7]; Setaria faberi, post-emergence, 240 h, Postemergence, read-out: Plant response rating (0 to 100 scale), Foxtail, Giant)?
Answer: 0%

Question: What about the pest or weed control at 500 g/ha ([7]; Setaria faberi, pre-emergence, 240 h, Preemergence, read-out: Plant response rating (0 to 100 scale), Foxtail, Giant) of the same molecule?
Answer: 0%

Question: And the pest or weed control at 125 g/ha ([8]; Digitaria sanguinalis, post-emergence, 240 h, Postemergence, 125 g ai/ha, read-out: Plant response rating (0 to 100 scale), Crabgrass, Large)?
Answer: 0%

Question: What about the pest or weed control at 500 g/ha ([8]; Digitaria sanguinalis, post-emergence, 240 h, Postemergence, read-out: Plant response rating (0 to 100 scale), Crabgrass, Large) of the same molecule?
Answer: 0%

Question: What about the pest or weed control at 500 g/ha ([8]; Digitaria sanguinalis, pre-emergence, 240 h, Preemergence, read-out: Plant response rating (0 to 100 scale), Crabgrass, Large) of the same molecule?
Answer: 0%

Question: And the “Crabgrass, Large plant response rating (0 = no effect, 100 = complete control)” value ([8]; Preemergence, 125 g ai/ha)?
Answer: 0

Question: And the pest or weed control at 125 g/ha ([9]; Amaranthus retroflexus, post-emergence, 240 h, Postemergence, 125 g ai/ha, read-out: Plant response rating (0 to 100 scale), Pigweed)?
Answer: 90%

Question: What about the pest or weed control at 500 g/ha ([9]; Amaranthus retroflexus, post-emergence, 240 h, Postemergence, read-out: Plant response rating (0 to 100 scale), Pigweed) of the same molecule?
Answer: 100%

Question: What about the pest or weed control at 500 g/ha ([9]; Amaranthus retroflexus, pre-emergence, 240 h, Preemergence, read-out: Plant response rating (0 to 100 scale), Pigweed) of the same molecule?
Answer: 90%

Question: What about the “Pigweed plant response rating (0 = no effect, 100 = complete control)” value ([9]; Preemergence, 125 g ai/ha) of the same molecule?
Answer: 50

Question: And the “Wheat plant response rating (0 = no effect, 100 = complete control)” value ([10]; Preemergence, 125 g ai/ha)?
Answer: 0

Question: And the plant injury at 125 g/ha ([10]; Triticum aestivum, post-emergence, 240 h, Postemergence, 125 g ai/ha, read-out: Plant response rating (0 to 100 scale), Wheat)?
Answer: 0%

Question: And the plant injury at 500 g/ha ([10]; Triticum aestivum, post-emergence, 240 h, Postemergence, read-out: Plant response rating (0 to 100 scale), Wheat)?
Answer: 0%

Question: What about the plant injury at 500 g/ha ([10]; Triticum aestivum, pre-emergence, 240 h, Preemergence, read-out: Plant response rating (0 to 100 scale), Wheat) of the same molecule?
Answer: 0%

Question: What about the “Corn plant response rating (0 = no effect, 100 = complete control)” value (corn (Zea mays); Preemergence, 125 g ai/ha) of the same molecule?
Answer: 0

Question: What about the plant injury at 125 g/ha (corn (Zea mays); Zea mays, post-emergence, 240 h, Postemergence, 125 g ai/ha, read-out: Plant response rating (0 to 100 scale), Corn) of the same molecule?
Answer: 0%

Question: And the plant injury at 500 g/ha (corn (Zea mays); Zea mays, post-emergence, 240 h, Postemergence, read-out: Plant response rating (0 to 100 scale), Corn)?
Answer: 0%

Question: What about the plant injury at 500 g/ha (corn (Zea mays); Zea mays, pre-emergence, 240 h, Preemergence, read-out: Plant response rating (0 to 100 scale), Corn) of the same molecule?
Answer: 0%

Question: And the pest or weed control at 125 g/ha ([11]; Echinochloa crus-galli, post-emergence, 240 h, Postemergence, 125 g ai/ha, read-out: Plant response rating (0 to 100 scale), Barnyardgrass)?
Answer: 0%

Question: And the pest or weed control at 500 g/ha ([11]; Echinochloa crus-galli, post-emergence, 240 h, Postemergence, read-out: Plant response rating (0 to 100 scale), Barnyardgrass)?
Answer: 0%

Question: And the pest or weed control at 500 g/ha ([11]; Echinochloa crus-galli, pre-emergence, 240 h, Preemergence, read-out: Plant response rating (0 to 100 scale), Barnyardgrass)?
Answer: 0%

Question: What about the “Barnyardgrass plant response rating (0 = no effect, 100 = complete control)” value ([11]; Preemergence, 125 g ai/ha) of the same molecule?
Answer: 0

Question: And the pest or weed control at 125 g/ha ([12]; Ipomoea, post-emergence, 240 h, Postemergence, 125 g ai/ha, read-out: Plant response rating (0 to 100 scale), Morningglory)?
Answer: 0%

Question: What about the pest or weed control at 500 g/ha ([12]; Ipomoea, post-emergence, 240 h, Postemergence, read-out: Plant response rating (0 to 100 scale), Morningglory) of the same molecule?
Answer: 0%

Question: And the pest or weed control at 500 g/ha ([12]; Ipomoea, pre-emergence, 240 h, Preemergence, read-out: Plant response rating (0 to 100 scale), Morningglory)?
Answer: 0%

Question: What about the “Morningglory plant response rating (0 = no effect, 100 = complete control)” value ([12]; Preemergence, 125 g ai/ha) of the same molecule?
Answer: 0
